Results on 6 molecules are retold here after patent US11827663B2, “Use of UAP inhibitors to inhibit flux through the hexosamine biosynthetic pathway” (The Johns Hopkins University, priority 2014, dated 2023).

Common to all, as to format: cell-based
Experiment [1] has as its system SW1990 cells. Put plainly: Cell count / cell proliferation assay in SW1990 cells. Conditions: for effect on SW1990 cell numbers / proliferation: in words; for IC50: cells counted after 48 hours incubation, normalized to controls, read-out: Estimated IC50 values, SW1990. The procedure: FIG. 3 depicts the result of cell count assays after two days of incubation with an exemplary compound, Ac4Glc2Bz. The cells treated with the compound are, respectively, SW1990 and PANC-1, which are pancreatic cancer cell lines. Meanwhile, control samples were treated with solvent vehicle of 2.5 μL DMSO per 1 mL of medium.
(§1) FIGS. 5A and 5B show the results of cell toxicity experiments that were conducted on SW1990 and PANC-1 cells with the analogs indicated. Cells were counted after incubation with each analog for 48 hours. Cell counts were then normalized to controls, data was log transformed, and IC50 values were calculated. […]
(§2) Cells were incubated at a range of concentrations of the UAP inhibitors (typically at 0, 10, 25, 50, 100, and 150 μM) and the number of cells were quantified, typically by automated counting (e.g., with a Coulter Counter Z2 instrument) after 1, 2, 3, or 5 days of exposure.

Experiment [2] has as its system PANC-1 cells. Description: Cell count / cell proliferation assay in PANC-1 cells. The settings on record: for effect on PANC-1 cell numbers / proliferation: in words; for IC50: cells counted after 48 hours incubation, normalized to controls, read-out: Estimated IC50 values, PANC-1. The procedure:
as §1, §2

The subject of experiment [3] is primary human adipose stem cells (hASCs). Description: Cell count assay in control cells (human ASCs). The settings on record: Homo sapiens, 48 h; two days of exposure; 300 is the highest concentration tested. The text has this: FIG. 4A and FIG. 4B depict histogram results of cell count assays after two days of exposure to each analog in cancer cell lines (SW1990 and PANC-1) and in control cells (human ASCs). […] In all cases, IC50 values were greater than 300 which is the highest concentration tested, for the ACSs, while the Ac4Glc2Bz analogs and Ac4Gal2Bz analogs were effective to reduce cell numbers in both cancer cell lines.

SMILES strings stand for the structures. Like-named read-outs stand apart in the source and are kept apart here.

In the case of `CC(=O)OC1OC(CO)C(OC(C)=O)C(OC(C)=O)C1NC(=O)c1ccccc1` (stereo not shown) [1,3,4-O-Ac3Glc2Bz], in experiment [1], the “effect on SW1990 cell numbers / proliferation” value is “consistently reduced cell numbers”. In experiment [2], the “effect on PANC-1 cell numbers / proliferation” value is “consistently reduced cell numbers”.
Usually IC50 stands for the midpoint of a concentration-inhibition curve. For the molecule `CC(=O)OCC1OC(O)[C@@H](NC(=O)c2ccccc2)[C@@H](OC(C)=O)[C@@H]1OC(C)=O` (stereo partly shown) [3,4,6-O—Ac3Glc2Bz], in experiment [1], the IC50 is 37.1 ± 1.8 µM and the “effect on SW1990 cell numbers / proliferation” value is on record as “remarkable inhibition”. Moreover, the IC50 in experiment [2] is 76.1 ± 1.6 µM.
For `CC(=O)OCC1OC(OC(C)=O)[C@@H](NC(=O)c2ccccc2)[C@@H](OC(C)=O)[C@H]1OC(C)=O` (stereo partly shown) [Ac4Gal2Bz], the IC50 in experiment [1] (Homo sapiens, SW1990) was 39.1 ± 2.2 µM; in experiment [3] it was > 300 µM; in experiment [2] (Homo sapiens, PANC-1), 107 ± 1.1 µM. The “effect on SW1990 cell numbers / proliferation” value in experiment [1] is on record as “remarkable inhibition”.
For `CC(=O)OC[C@H]1OC(OC(C)=O)[C@H](NC(=O)c2ccccc2O)[C@@H](OC(C)=O)[C@@H]1OC(C)=O` (stereo partly shown) [Ac4Glc2NBz-2-OH], in experiment [1], the IC50 is 140.3 ± 1.4 µM and the “effect on SW1990 cell numbers / proliferation” value is “consistently reduced cell numbers”. In experiment [2], the IC50 was 49.9 ± 1.3 µM and the “effect on PANC-1 cell numbers / proliferation” value was “consistently reduced cell numbers”.
In the case of `CC(=O)OCC1OC(OC(C)=O)[C@@H](NC(=O)C2CCCCC2)[C@@H](OC(C)=O)[C@H]1OC(C)=O` (stereo partly shown) [Ac4GlcNCyx], the IC50 in experiment [1] (Homo sapiens, SW1990) was 160.9 ± 1.4 µM; in experiment [2] (Homo sapiens, PANC-1), 84.1 ± 1.5 µM.
With `CC(=O)OCC1OC(OC(C)=O)[C@H](NC(=O)c2ccccc2)[C@@H](OC(C)=O)[C@H]1OC(C)=O` (stereo partly shown) [Ac4Man2Bz], the IC50 in experiment [1] (Homo sapiens, SW1990) is 148 ± 1.5 µM; in experiment [2] (Homo sapiens, PANC-1), 100 ± 1.8 µM. Further, the “effect on SW1990 cell numbers / proliferation” value in experiment [1] is reported as “substantially low effect”. Moreover, in experiment [2], the “effect on PANC-1 cell numbers / proliferation” value is listed as “substantially low effect”.
